Laboratory results published in patent publication US12202818B2, “Compounds and methods for CD73 modulation and indications therefor” (Opna Bio SA, priority 2020, dated 2025).

Assays:
[1] = target: T1, Human CD73 (amino acid residues 27-549) (Homo sapiens, UniProt P21589); assay: CD73 enzymatic assay (luciferase-based indirect assay, CellTiter-Glo); type: biochemical; conditions: 0.4 nM CD73, 150 μM AMP, 1 hour at room temperature
T1 construct: Human CD73 (amino acid residues 27-549); His tag (N); made in house; host or cells: E. coli
T1 sequence (P21589 27-549): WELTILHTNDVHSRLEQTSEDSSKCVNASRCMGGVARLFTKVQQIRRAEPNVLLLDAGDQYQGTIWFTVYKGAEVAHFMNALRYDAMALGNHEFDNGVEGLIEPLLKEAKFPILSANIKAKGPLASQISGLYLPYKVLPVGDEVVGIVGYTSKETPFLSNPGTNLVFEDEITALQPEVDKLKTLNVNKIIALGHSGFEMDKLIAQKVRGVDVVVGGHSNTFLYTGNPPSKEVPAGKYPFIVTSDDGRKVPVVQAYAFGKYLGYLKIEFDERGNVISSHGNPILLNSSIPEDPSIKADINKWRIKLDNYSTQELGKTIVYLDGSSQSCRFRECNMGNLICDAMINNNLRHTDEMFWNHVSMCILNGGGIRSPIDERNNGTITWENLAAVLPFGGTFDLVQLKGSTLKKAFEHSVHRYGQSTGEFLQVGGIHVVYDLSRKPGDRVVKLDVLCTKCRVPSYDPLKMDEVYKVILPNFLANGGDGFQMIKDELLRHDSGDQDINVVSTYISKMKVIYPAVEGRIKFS
Summary of the method: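 N-His human CD73 (27-549) expressed in E. coli, 0.4 nM, incubated with 150 μM AMP and compound in 50 mM HEPES pH 7.4, 0.01% Tween-20, 1 h at RT. Remaining AMP read via CellTiter-Glo luminescence with 1 μM ATP after 30 min; IC50 from nonlinear regression of % inhibition.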

[2] = target: T2, human CD73 (Homo sapiens, UniProt P21589); assay: Inhibitor activity against CD73 in cell based assay (CD73 expressing CHO-K1 cells); conditions: CHO-K1 cells expressing human CD73, 150 μM AMP, 4 hours of incubation; read-out: CHO-K1 CELL_VARIANT: CD73 IC50
T2 construct: expressed in transfected cells
T2 sequence (P21589 27-549): T1 sequence (P21589 27-549)
Summary of the method: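 Stable human CD73 CHO-K1 cells, 1×10^4/well, exposed to an 8-point 1:3 compound series (top 10 μM, 0.2% DMSO) plus 150 μM AMP for 4 h. Remaining AMP in the supernatant was read by CellTiter-Glo 2.0 luminescence with 1 μM ATP after 30 min at room temperature. IC50 came from nonlinear regression of % inhibition against cell and media-only controls.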

Row | SMILES | IC50 [1] [µM] | IC50 [2] [µM]
1 | O=c1[nH]ncc(N2CC[C@@H](Oc3cc(C4CCN(CC(F)(F)F)CC4)ccn3)C2)c1Cl [P-0048, (R)-4-chloro-5-(3-((4-(1-(2,2,2-trifluoroethyl)piperidin-4-yl)pyridin-2-yl)oxy)pyrrolidin-1-yl)pyridazin-3(2H)-one] | 0.001 to 10 | 0.001 to 10
2 | CCCNS(=O)(=O)c1ccc(-c2ccnc(O[C@@H]3CCN(c4cn[nH]c(=O)c4Cl)C3)c2)c(Cl)c1 [P-0233, (R)-3-chloro-4-(2-((1-(5-chloro-6-oxo-1,6-dihydropyridazin-4-yl)pyrrolidin-3-yl)oxy)pyridin-4-yl)-N-propylbenzenesulfonamide] | 0.001 to 10 | 0.001 to 10
3 | CC(C)C(=O)Nc1ccc(-c2ccnc(O[C@@H]3CCN(c4cn[nH]c(=O)c4Cl)C3)c2)c(F)c1 [P-0205, (R)-N-(4-(2-((1-(5-chloro-6-oxo-1,6-dihydropyridazin-4-yl)pyrrolidin-3-yl)oxy)pyridin-4-yl)-3-fluorophenyl)isobutyramide] | 0.001 to 10 | 0.001 to 10
4 | CCC1(Cn2nc(C)c(-c3ccnc(O[C@@H]4CCN(c5cn[nH]c(=O)c5Cl)C4)c3)c2C)COC1 [P-0054, (R)-4-chloro-5-(3-((4-(1-((3-ethyloxetan-3-yl)methyl)-3,5-dimethyl-1H-pyrazol-4-yl)pyridin-2-yl)oxy)pyrrolidin-1-yl)pyridazin-3(2H)-one] | 0.001 to 10 | 0.001 to 10
5 | O=c1[nH]ncc(N2CC[C@@H](Oc3cc(-c4cnn(C5CCNCC5)c4)ccn3)C2)c1Cl [P-0002, (R)-4-chloro-5-(3-((4-(1-(piperidin-4-yl)-1H-pyrazol-4-yl)pyridin-2-yl)oxy)pyrrolidin-1-yl)pyridazin-3(2H)-one] | 0.001 to 10 | 0.001 to 10
6 | O=c1[nH]ncc(N2CC[C@@H](Oc3cc(-c4ccc(C(F)(F)F)cc4)ccn3)C2)c1Cl [P-0236, (R)-4-chloro-5-(3-((4-(4-(trifluoromethyl)phenyl)pyridin-2-yl)oxy)pyrrolidin-1-yl)pyridazin-3(2H)-one] | 0.001 to 10 | 0.001 to 10
7 | Cc1nnn(C)c1-c1cc(F)nc(O[C@@H]2CCN(c3cn[nH]c(=O)c3Cl)C2)c1 [P-0172, (R)-4-chloro-5-(3-((4-(1,4-dimethyl-1H-1,2,3-triazol-5-yl)-6-fluoropyridin-2-yl)oxy)pyrrolidin-1-yl)pyridazin-3(2H)-one] | 0.001 to 10 | 0.001 to 10
8 | Cc1nn(C)c(C)c1-c1cc(F)nc(O[C@H]2CN(c3cnn(CCO)c(=O)c3Cl)C[C@@H]2F)c1 [P-0190, 4-chloro-5-((3S,4S)-3-fluoro-4-((6-fluoro-4-(1,3,5-trimethyl-1H-pyrazol-4-yl)pyridin-2-yl)oxy)pyrrolidin-1-yl)-2-(2-hydroxyethyl)pyridazin-3(2H)-one] | 0.001 to 10 | 0.001 to 10
9 | COC(=O)C1C2CCC1CN(c1ccnc(O[C@@H]3CCN(c4cn[nH]c(=O)c4Cl)C3)c1)C2 (stereo partly drawn) [P-0028, methyl 3-(2-(((R)-1-(5-chloro-6-oxo-1,6-dihydropyridazin-4-yl)pyrrolidin-3-yl)oxy)pyridin-4-yl)-3-azabicyclo[3.2.1]octane-8-carboxylate] | 0.001 to 10 | 0.001 to 10
10 | Cc1nn(C)c(C)c1-c1cnnc(O[C@@H]2CCN(c3cn[nH]c(=O)c3Cl)C2)c1 [P-0156, (R)-4-chloro-5-(3-((5-(1,3,5-trimethyl-1H-pyrazol-4-yl)pyridazin-3-yl)oxy)pyrrolidin-1-yl)pyridazin-3(2H)-one] | 0.001 to 10 | 0.001 to 10
11 | Cc1nn(CC23CC(C#N)(C2)C3)c(C)c1-c1ccnc(O[C@@H]2CCN(c3cnn(CCO)c(=O)c3Cl)C2)c1 [P-0034, (R)-3-((4-(2-((1-(5-chloro-1-(2-hydroxyethyl)-6-oxo-1,6-dihydropyridazin-4-yl)pyrrolidin-3-yl)oxy)pyridin-4-yl)-3,5-dimethyl-1H-pyrazol-1-yl)methyl)bicyclo[1.1.1]pentane-1-carbonitrile] | 0.001 to 10 | 0.001 to 10
12 | Cc1cc(NS(=O)(=O)C2CC2)ccc1-c1ccnc(O[C@@H]2CCN(c3cn[nH]c(=O)c3Cl)C2)c1 [P-0210, (R)-N-(4-(2-((1-(5-chloro-6-oxo-1,6-dihydropyridazin-4-yl)pyrrolidin-3-yl)oxy)pyridin-4-yl)-3-methylphenyl)cyclopropane-sulfonamide] | 0.001 to 10 | 0.001 to 10
13 | Cc1noc(C)c1-c1cc(O[C@@H]2CCN(c3cnn(CCCO)c(=O)c3Cl)C2)ncn1 [P-0139, (R)-4-chloro-5-(3-((6-(3,5-dimethylisoxazol-4-yl)pyrimidin-4-yl)oxy)pyrrolidin-1-yl)-2-(3-hydroxypropyl)pyridazin-3(2H)-one] | 0.001 to 10 | 0.001 to 10
14 | CC1COCCN1c1ccnc(O[C@@H]2CCN(c3cn[nH]c(=O)c3Cl)C2)c1 (stereo partly drawn) [P-0092, 4-chloro-5-((3R)-3-((4-(3-methylmorpholino)pyridin-2-yl)oxy)pyrrolidin-1-yl)pyridazin-3(2H)-one] | 0.001 to 10 | 0.001 to 10
15 | Cc1nn(C)c(C)c1-c1cc(F)nc(O[C@@H]2CCN(c3cn[nH]c(=O)c3Cl)C2)c1 [P-0200, (R)-4-chloro-5-(3-((6-fluoro-4-(1,3,5-trimethyl-1H-pyrazol-4-yl)pyridin-2-yl)oxy)pyrrolidin-1-yl)pyridazin-3(2H)-one] | 0.001 to 10 | 0.001 to 10
16 | Cc1nn(C)c(C)c1-c1cc(O[C@@H]2CCN(c3cn[nH]c(=O)c3Cl)C2)cnn1 [P-0157, (R)-4-chloro-5-(3-((6-(1,3,5-trimethyl-1H-pyrazol-4-yl)pyridazin-4-yl)oxy)pyrrolidm-1-yl)pyridazin-3(2H)-one] | 0.001 to 10 | 0.001 to 10
17 | O=C(Nc1ccc(-c2ccnc(O[C@@H]3CCN(c4cn[nH]c(=O)c4Cl)C3)c2)c(F)c1)C1CCC1 [P-0212, (R)-N-(4-(2-((1-(5-chloro-6-oxo-1,6-dihydropyridazin-4-yl)pyrrolidin-3-yl)oxy)pyridin-4-yl)-3-fluorophenyl)cyclobutane-carboxamide] | 0.001 to 10 | 0.001 to 10
18 | Cc1noc(C)c1-c1cc(O[C@@H]2CCN(c3cnn(CCO)c(=O)c3Cl)C2)ncn1 [P-0178, (R)-4-chloro-5-(3-((6-(3,5-dimethylisoxazol-4-yl)pyrimidin-4-yl)oxy)pyrrolidin-1-yl)-2-(2-hydroxyethyl)pyridazin-3(2H)-one] | 0.001 to 10 | 0.001 to 10
19 | Cc1nn(C(CO)CO)c(C)c1-c1cc(O[C@H]2CN(c3cnn(CCO)c(=O)c3Cl)C[C@@H]2F)ncc1F [P-0006, 4-chloro-5-((3S,4S)-3-((4-(1-(1,3-dihydroxypropan-2-yl)-3,5-dimethyl-1H-pyrazol-4-yl)-5-fluoropyridin-2-yl)oxy)-4-fluoropyrrolidin-1-yl)-2-(2-hydroxyethyl)pyridazin-3(2H)-one] | 0.001 to 10 | 0.001 to 10
20 | Cc1nn(CC2CC(C#N)C2)c(C)c1-c1cc(O[C@@H]2CCN(c3cn[nH]c(=O)c3Cl)C2)ncn1 (stereo partly drawn) [P-0052, (R)-3-((4-(6-((1-(5-chloro-6-oxo-1,6-dihydropyridazin-4-yl)pyrrolidin-3-yl)oxy)pyrimidin-4-yl)-3,5-dimethyl-1H-pyrazol-1-yl)methyl)cyclobutane-1-carbonitrile] | 0.001 to 10 | 10 to 100
21 | Cc1nn(CC2CC(C#N)C2)c(C)c1-c1ccnc(O[C@@H]2CCN(c3cn[nH]c(=O)c3Cl)C2)c1 (stereo partly drawn) [P-0057, (R)-3-((4-(2-((1-(5-chloro-6-oxo-1,6-dihydropyridazin-4-yl)pyrrolidin-3-yl)oxy)pyridin-4-yl)-3,5-dimethyl-1H-pyrazol-1-yl)methyl)cyclobutane-1-carbonitrile] | 0.001 to 10 | 0.001 to 10
22 | O=c1[nH]ncc(N2CC[C@@H](Oc3cc(C4=CCCC4)ccn3)C2)c1Cl [P-0084, (R)-4-chloro-5-(3-((4-(cyclopent-1-en-1-yl)pyridin-2-yl)oxy)pyrrolidin-1-yl)pyridazin-3(2H)-one] | 0.001 to 10 | 0.001 to 10
23 | O=C(O)Cc1ccc(-c2ccnc(O[C@@H]3CCN(c4cn[nH]c(=O)c4Cl)C3)c2)c(F)c1 [P-0219, (R)-2-(4-(2-((1-(5-chloro-6-oxo-1,6-dihydropyridazin-4-yl)pyrrolidin-3-yl)oxy)pyridin-4-yl)-3-fluorophenyl)acetic acid] | 0.001 to 10 | 10 to 100
24 | Cc1nn(CC2CC2)c(C)c1-c1cc(F)nc(O[C@@H]2CCN(c3cn[nH]c(=O)c3Cl)C2)c1 [P-0152, (R)-4-chloro-5-(3-((4-(1-(cyclopropylmethyl)-3,5-dimethyl-1H-pyrazol-4-yl)-6-fluoropyridin-2-yl)oxy)pyrrolidin-1-yl)pyridazin-3(2H)-one] | 0.001 to 10 | 0.001 to 10
